Data reported in paper PMC5784158, “New 2-Aryl-9-methyl-β-carbolinium salts as Potential Acetylcholinesterase Inhibitor agents: Synthesis, Bioactivity and Structure–Activity Relationship” (Scientific Reports, 2018).
Like-named read-outs stand apart in the source and are kept apart here.

Target: AChE (Musca domestica, UniProt Q7YWJ9)
Experiment: biochemical
Type: biochemical, fly
Protocol: AChE (E.C. 3.1.1.7) (BR, 200 u/mg) from fly’s head and BuChE (E.C. 3.1.1.8) (BR, 20 u/mg) from horse serum were purchased from Shanghai Yuanye biological technology Co. Ltd (Shanghai, China).
The inhibitory activities of the compounds against AChE were evaluated according to Ellman’s coupled enzyme assay[47] with the following modifications. 90 μL potassium phosphate buffer (PBS, 0.1 M, pH 7.4), 10 μL the solution of 2 units/mL AChE in 0.1 M PBS (pH 7.4) and 10 μL the solution of 200 μM test compounds in the mixed solution of methanol-PBS (pH 7.4) (1:9, V/V) were added to each well of a 96-well plate. The methanol-PBS solution was used as a blank control. After incubation at room temperature for 10 min, 60 μL the solution of 10 mM DTNB in PBS was added into each the well. The plate was placed on crushed ices and cooled for 20 min. To each the well was added 30 μL the solution of 7.5 mM ATCh in PBS (pH 7.4). […] Each test was performed in triplicate. Inhibition rates of the enzyme were calculated relative to a control sample. The inhibitory activities against BuChE were measured as described above for AChE, using 0.7 unit/mL BuChE and 4 mM BuTCh instead of AChE and ATCh as the enzyme and substrate, respectively.
The probit value of the average inhibition rate for each test concentration and the corresponding lg[concentration] were used to establish enzyme inhibition regression equation by the linear least-square fitting method. IC50 values were calculated from the equations.

[1] = Estimated values based on the results in Table 1 (inhibition rate at 10 μM), read-out: IC50 AChE, estimated values
[2] = test concentration of the compound 10 μM

AChE, sequence (Q7YWJ9 81-659): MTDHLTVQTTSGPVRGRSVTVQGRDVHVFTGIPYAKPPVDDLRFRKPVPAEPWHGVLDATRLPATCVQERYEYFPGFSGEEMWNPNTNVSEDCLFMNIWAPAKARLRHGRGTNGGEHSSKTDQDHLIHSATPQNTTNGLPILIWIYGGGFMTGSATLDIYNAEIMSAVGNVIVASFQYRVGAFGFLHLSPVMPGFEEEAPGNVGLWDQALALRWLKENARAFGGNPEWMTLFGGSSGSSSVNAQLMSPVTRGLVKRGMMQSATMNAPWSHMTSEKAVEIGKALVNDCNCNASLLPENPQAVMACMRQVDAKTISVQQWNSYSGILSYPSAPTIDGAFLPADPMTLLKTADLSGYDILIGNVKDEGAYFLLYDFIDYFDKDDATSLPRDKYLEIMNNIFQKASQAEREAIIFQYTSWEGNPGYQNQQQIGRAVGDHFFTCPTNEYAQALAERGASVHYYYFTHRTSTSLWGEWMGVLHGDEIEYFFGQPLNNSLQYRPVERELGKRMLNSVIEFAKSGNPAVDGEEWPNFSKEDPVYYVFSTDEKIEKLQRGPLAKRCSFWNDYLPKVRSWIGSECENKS

SMILES	IC50 [1] [µM]	Inhibition rate (%) [2]	further results
Cn1c2c(c3ccccc31)CC[N+](c1ccccc1Cl)=C2.[Br-] [Compound A5]	> 10	2.4 ± 8.0 stu %	–
Cn1c2ccccc2c2cc[n+](-c3cccc(C(F)(F)F)c3)cc21.[Br-] [Compound B26, 9-Methyl-2-(3-trifluoromethylphenyl)-β-carboline bromide]	> 10	41.0 ± 1.9 rs %	–
CCCCn1c2ccccc2c2cc[n+](-c3ccccc3)cc21.[Br-] [Compound B42, 9-Butyl-2-phenyl-β-carboline bromide]	–	65.7 ± 0.6 m %	IC50 (read-out: IC50 ± S.D AChE): 2.91 ± 0.33 µM
Cn1c2ccccc2c2cc[n+](-c3ccccc3O)cc21.[Br-] [Compound B14, 9-Methyl-2-(2-hydroxyhenyl)-β-carboline bromide]	> 10	23.9 ± 4.3 v %	–
Cn1c2c(c3ccccc31)CC[N+](c1cccc([N+](=O)[O-])c1)=C2.[Br-] [Compound A28]	> 10	14.5 ± 3.9 mnop %	–
C1=[N+](c2ccccc2)CCc2c1n(Cc1ccccc1)c1ccccc21.[Br-] [Compound A44]	> 10	31.2 ± 4.4 ef %	–
Cn1c2c(c3ccccc31)CC[N+](c1ccccc1O)=C2.[Br-] [Compound A14]	> 10	23.2 ± 2.5 kl %	–
Brc1ccc([N+]2=Cc3[nH]c4ccccc4c3CC2)cc1.[Br-] [Compound A47]	> 10	16.0 ± 1.7 mnop %	–
Cc1cccc([N+]2=Cc3c(c4ccccc4n3C)CC2)c1.[Br-] [Compound A21]	> 10	28.6 ± 1.7 k %	–
Cn1c2ccccc2c2cc[n+](-c3ccccc3I)cc21.[Br-] [Compound B11, 9-Methyl-2-(2-iodohenyl)-β-carboline bromide]	> 10	43.3 ± 1.8 r %	–
Cn1c2ccccc2c2cc[n+](-c3cccc(Br)c3)cc21.[Br-] [Compound B9, 9-Methyl-2-(3-bromophenyl)-β-carboline bromide]	~10	48.8 ± 6.6 q %	–
Cn1c2ccccc2c2cc[n+](-c3cc(Cl)cc(Cl)c3)cc21.[Br-] [Compound B31, 9-Methyl-2-(3,5-dichlorophenyl)-β-carboline bromide]	> 10	18.9 ± 2.5 v %	–
Cn1c2c(c3ccccc31)CC[N+](c1ccc(C(F)(F)F)cc1)=C2.[Br-] [Compound A27]	> 10	28.4 ± 1.0 k %	–
Cn1c2cc(Cl)ccc2c2cc[n+](-c3ccccc3)cc21.[Br-] [Compound B37, 7-Chloro-9-methyl-2-phenyl-β-carboline bromide]	–	89.9 ± 0.7 def %	IC50 (read-out: IC50 ± S.D AChE): 0.57 ± 0.08 µM
Cn1c2c(c3ccccc31)CC[N+](c1ccccc1Br)=C2.[Br-] [Compound A8]	> 10	5.9 ± 1.0 qrs %	–
Cn1c2c(c3ccccc31)CC[N+](c1ccccc1F)=C2.[Br-] [Compound A2]	> 10	15.1 ± 2.8 mnop %	–
Cn1c2c(c3ccccc31)CC[N+](c1ccc(C#N)cc1)=C2.[Br-] [Compound A25]	> 10	15.6 ± 1.8 mnop %	–
COc1ccccc1-[n+]1ccc2c3ccccc3n(C)c2c1.[Br-] [Compound B17, 9-Methyl-2-(2-methoxylphenyl)-β-carboline bromide]	> 10	41.0 ± 2.9 rs %	–
Cn1c2c(c3ccccc31)CC[N+](c1ccccc1I)=C2.[Br-] [Compound A11]	–	−10.6 ± 3.0 w %	IC50 (10 μM, read-out: IC50 AChE, NA): > 10 µM
C=CCn1c2ccccc2c2cc[n+](-c3ccccc3)cc21.[Br-] [Compound B41, 9-Allyl-2-phenyl-β-carboline bromide]	–	78.2 ± 1.6 k %	IC50 (read-out: IC50 ± S.D AChE): 1.18 ± 0.3 µM
Cc1ccccc1[N+]1=Cc2c(c3ccccc3n2C)CC1.[Br-] [Compound A20]	> 10	44.3 ± 1.7 j %	–
Cn1c2ccccc2c2cc[n+](-c3ccccc3Br)cc21.[Br-] [Compound B8, 9-Methyl-2-(2-bromophenyl)-β-carboline bromide]	> 10	32.1 ± 0.9 u %	–
COc1cccc([N+]2=Cc3c(c4ccccc4n3C)CC2)c1.[Br-] [Compound A18]	> 10	4.7 ± 1.5 rst %	–
CC(C)Cn1c2c(c3ccccc31)CC[N+](c1ccccc1)=C2.[Br-] [Compound A43]	> 10	46.5 ± 1.9 ghi %	–

SMILES	IC50 [1] [µM]	Inhibition rate (%) [2]	further results
CC(C)Cn1c2ccccc2c2cc[n+](-c3ccccc3)cc21.[Br-] [Compound B43, 9-Iso-butyl-2-phenyl-β-carboline bromide]	–	84.1 ± 0.6 hi %	IC50 (read-out: IC50 ± S.D AChE): 0.98 ± 0.03 µM
Cn1c2ccccc2c2cc[n+](-c3ccccc3)cc21.[Br-] [Compound B1, 9-Methyl-2-phenyl-β-carboline bromide]	–	71.5 ± 0.3 l %	IC50 (read-out: IC50 ± S.D AChE): 3.18 ± 0.12 µM
Cn1c2c(c3ccccc31)CC[N+](c1cc(Cl)cc(Cl)c1)=C2.[Br-] [Compound A31]	–	0.7 ± 0.5 stu %	IC50 (10 μM, read-out: IC50 AChE, NA): > 10 µM
Cn1c2ccccc2c2cc[n+](-c3ccccc3Cl)cc21.[Br-] [Compound B5, 9-Methyl-2-(2-chlorophenyl)-β-carboline bromide]	> 10	38.5 ± 1.9 st %	–
Cn1c2c(c3ccccc31)CC[N+](c1ccc(Cl)cc1Cl)=C2.[Br-] [Compound A30]	–	−0.5 ± 2.4 tu %	IC50 (10 μM, read-out: IC50 AChE, NA): > 10 µM
CCOC(=O)Cn1c2c(c3ccccc31)CC[N+](c1ccccc1)=C2.[Br-] [Compound A45]	> 10	38.8 ± 4.6 j %	–
CC(C)n1c2ccccc2c2cc[n+](-c3ccccc3)cc21.[Br-] [Compound B40, 9-Iso-propyl-2-phenyl-β-carboline bromide]	–	86.9 ± 0.8 fgh %	IC50 (read-out: IC50 ± S.D AChE): 0.54 ± 0.16 µM
Cn1c2c(c3ccccc31)CC[N+](c1cccc(C(F)(F)F)c1)=C2.[Br-] [Compound A26]	> 10	12.8 ± 2.1 kln %	–
Cn1c2c(c3ccccc31)CC[N+](c1ccc(Br)cc1Br)=C2.[Br-] [Compound A33]	–	no activity	IC50 (10 μM, read-out: IC50 AChE, NA): > 10 µM; Inhibition rate (%) (test concentration of the compound 10 μM, 10 µM): −7.0 ± 8.3 vw %
CCOC(=O)Cn1c2ccccc2c2cc[n+](-c3ccccc3)cc21.[Br-] [Compound B45, 9-(Ethoxy-2-oxyethyl)-2-phenyl-β-carboline bromide]	> 10	42.0 ± 0.7 rs %	–
Cn1c2c(c3ccccc31)CC[N+](c1ccc(Br)cc1F)=C2.[Br-] [Compound A32]	> 10	11.1 ± 2.8 opq %	–
Cc1ccc(N2CCc3c(n(C)c4ccccc34)C2)cc1 [Compound C1, 9-methyl-2-p-toly-1,2,3,4-tetrahydro-β-carboline]	–	–	IC50 (10 μM, read-out: IC50 AChE, NA): > 10 µM; inhibition at 10 µM (test concentration of the compound 10 μM, read-out: Inhibition rate (%)): -2.3 ± 3.2%
Cn1c2c(c3ccccc31)CC[N+](c1c(F)cccc1F)=C2.[Br-] [Compound A29]	–	−3.3 ± 2.0 uv %	IC50 (10 μM, read-out: IC50 AChE, NA): > 10 µM
Br.c1ccc(-n2ccc3c4ccccc4nc-3c2)cc1 [Compound B46, 2-Phenyl-β-carboline bromide]	–	43.0 ± 1.8 r %	IC50 (read-out: IC50 ± S.D AChE): 18 ± 2.42 µM
[Br-].c1ccc(Cn2c3ccccc3c3cc[n+](-c4ccccc4)cc32)cc1 [Compound B44, 9-Benzyl-2-phenyl-β-carboline bromide]	–	47.8 ± 2.0 q %	IC50 (read-out: IC50 ± S.D AChE): 11.2 ± 2.54 µM
COc1ccccc1[N+]1=Cc2c(c3ccccc3n2C)CC1.[Br-] [Compound A17]	> 10	5.8 ± 2.4 qrs %	–
Cn1c2c(c3ccccc31)CC[N+](c1cccc(F)c1)=C2.[Br-] [Compound A3]	> 10	22.4 ± 1.1 l %	–
Cn1c2ccccc2c2cc[n+](-c3c(F)cccc3F)cc21.[Br-] [Compound B29, 9-Methyl-2-(2,6-difluorophenyl)-β-carboline bromide]	~10	48.5 ± 3.1 pq %	–
Cn1c2c(c3ccccc31)CC[N+](c1cccc(Cl)c1)=C2.[Br-] [Compound A6]	> 10	19.3 ± 4.0 lm %	–
Cn1c2ccccc2c2cc[n+](-c3ccc(C#N)cc3)cc21.[Br-] [Compound B25, 9-Methyl-2-(4-cyanophenyl)-β-carboline bromide]	> 10	36.8 ± 0.8 t %	–
Cn1c2c(c3ccccc31)CC[N+](c1cccc(C#N)c1)=C2.[Br-] [Compound A24]	> 10	18.9 ± 0.3 lmn %	–
Cn1c2c(c3ccccc31)CC[N+](c1cccc(I)c1)=C2.[Br-] [Compound A12]	> 10	10.1 ± 2.8 pqr %	–
Cn1c2cc(F)ccc2c2cc[n+](-c3ccccc3)cc21.[Br-] [Compound B36, 7-Fluoro-9-methyl-2-phenyl-β-carboline bromide]	–	76.2 ± 1.1 k %	IC50 (read-out: IC50 ± S.D AChE): 2.61 ± 0.51 µM
